Reference: PubChem BioAssay AID2060619 (Molecular Pharmacology Branch, DTP, NCI, 2025)
Values belong to the compound of their own block, whether it stands above or below them.

System: 323965-272-R-J2-PDC complex spheroid viability
Assay: Anticancer human tumor 323965-272-R-J2-PDC patient-derived pancreatic carcinoma cell line growth inhibition [CLK]
Details: for IC50: curve of first compound; for viability, T/C: stronger effect = lower value
Method in brief: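 Multi-cell-type spheroids combined patient-derived tumor cells with HUVEC endothelial cells and human mesenchymal stem cells. Paired agents were dosed in half-log steps down from about clinical Cmax, or from 10 microM where Cmax was unknown.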

[1] = second compound 0.0316 µM, first compound 0.0316 µM
[2] = second compound 0.0316 µM, first compound 0.1 µM
[3] = second compound 0.0316 µM, first compound 0.316 µM
[4] = second compound 0.0316 µM, first compound 1 µM
[5] = second compound 0.0316 µM, first compound 3.16 µM
[6] = second compound 0.0316 µM, first compound 10 µM
[7] = second compound 0.1 µM, first compound 0.0316 µM
[8] = second compound 0.1 µM, first compound 0.1 µM
[9] = second compound 0.1 µM, first compound 0.316 µM
[10] = second compound 0.1 µM, first compound 1 µM
[11] = second compound 0.1 µM, first compound 3.16 µM
[12] = second compound 0.1 µM, first compound 10 µM
[13] = second compound 0.316 µM, first compound 0.0316 µM
[14] = second compound 0.316 µM, first compound 0.1 µM
[15] = second compound 0.316 µM, first compound 0.316 µM
[16] = second compound 0.316 µM, first compound 1 µM
[17] = second compound 0.316 µM, first compound 3.16 µM
[18] = second compound 0.316 µM, first compound 10 µM
[19] = second compound 1 µM, first compound 0.0316 µM
[20] = second compound 1 µM, first compound 0.1 µM
[21] = second compound 1 µM, first compound 0.316 µM
[22] = second compound 1 µM, first compound 1 µM
[23] = second compound 1 µM, first compound 3.16 µM
[24] = second compound 1 µM, first compound 10 µM
[25] = second compound 3.16 µM, first compound 0.0316 µM
[26] = second compound 3.16 µM, first compound 0.1 µM
[27] = second compound 3.16 µM, first compound 0.316 µM
[28] = second compound 3.16 µM, first compound 1 µM
[29] = second compound 3.16 µM, first compound 3.16 µM
[30] = second compound 3.16 µM, first compound 10 µM
[31] = second compound 10 µM, first compound 0.0316 µM
[32] = second compound 10 µM, first compound 0.1 µM
[33] = second compound 10 µM, first compound 0.316 µM
[34] = second compound 10 µM, first compound 1 µM
[35] = second compound 10 µM, first compound 3.16 µM
[36] = second compound 10 µM, first compound 10 µM
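Note: spheroids exposed to agents for seven days before readout.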
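Throughout, for viability, T/C: percent of DMSO vehicle control wells so 100% = untreated growth.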

- IC50 (second compound 0.0316 µM): 9720 nM
- IC50 (second compound 0.1 µM): > 10000 nM
- IC50 (second compound 0.316 µM): 1500 nM
- IC50 (second compound 1 µM): < 31.6 nM
- IC50 (second compound 3.16 µM): < 31.6 nM
- IC50 (second compound 10 µM): < 31.6 nM
SMILES: COc1ccc([C@@H](O)c2cc(-c3ncnc4cc(N5CCOCC5)ccc34)c(F)cc2Cl)nn1 + CNC(=O)c1ccc(Nc2nc(OC3CCCC3)c3c(-c4ccc5nc(C)oc5c4)c[nH]c3n2)c(OC)c1
- viability, T/C [1]: 99.2%
- viability, T/C [2]: 127%
- viability, T/C [3]: 110%
- viability, T/C [4]: 95.3%
- viability, T/C [5]: 79.2%
- viability, T/C [6]: 48.9%
- viability, T/C [7]: 85.9%
- viability, T/C [8]: 79.9%
- viability, T/C [9]: 77.7%
- viability, T/C [10]: 70.7%
- viability, T/C [11]: 63.8%
- viability, T/C [12]: 49.1%
- viability, T/C [13]: 62%
- viability, T/C [14]: 67%
- viability, T/C [15]: 49.9%
- viability, T/C [16]: 52.1%
- viability, T/C [17]: 49.4%
- viability, T/C [18]: 40.3%
- viability, T/C [19]: 49.2%
- viability, T/C [20]: 42.1%
- viability, T/C [21]: 42.6%
- viability, T/C [22]: 43%
- viability, T/C [23]: 40.3%
- viability, T/C [24]: 28.5%
- viability, T/C [25]: 48.7%
- viability, T/C [26]: 41.2%
- viability, T/C [27]: 43.7%
- viability, T/C [28]: 33.5%
- viability, T/C [29]: 32.1%
- viability, T/C [30]: 26.8%
- viability, T/C [31]: 41.4%
- viability, T/C [32]: 47.9%
- viability, T/C [33]: 35.7%
- viability, T/C [34]: 39.8%
- viability, T/C [35]: 31.2%
- viability, T/C [36]: 26.7%

- IC50 (second compound 0.0316 µM): 104 nM
- IC50 (second compound 0.1 µM): 135 nM
- IC50 (second compound 0.316 µM): < 31.6 nM
- IC50 (second compound 1 µM): < 31.6 nM
- IC50 (second compound 3.16 µM): < 31.6 nM
- IC50 (second compound 10 µM): < 31.6 nM
SMILES: COc1cccc2c1C(=O)c1c(O)c3c(c(O)c1C2=O)CC(O)(C(=O)CO)CC3OC1CC(N)C(O)C(C)O1 (centres undefined) + CNC(=O)c1ccc(Nc2nc(OC3CCCC3)c3c(-c4ccc5nc(C)oc5c4)c[nH]c3n2)c(OC)c1
- viability, T/C [1]: 69.4%
- viability, T/C [2]: 38.1%
- viability, T/C [3]: 41.5%
- viability, T/C [4]: 28.1%
- viability, T/C [5]: 19.5%
- viability, T/C [6]: 0.64%
- viability, T/C [7]: 73.2%
- viability, T/C [8]: 44.8%
- viability, T/C [9]: 39.6%
- viability, T/C [10]: 28%
- viability, T/C [11]: 19.7%
- viability, T/C [12]: 0.62%
- viability, T/C [13]: 48%
- viability, T/C [14]: 44.1%
- viability, T/C [15]: 29.9%
- viability, T/C [16]: 22.7%
- viability, T/C [17]: 13.4%
- viability, T/C [18]: 0.67%
- viability, T/C [19]: 40.8%
- viability, T/C [20]: 30%
- viability, T/C [21]: 22.7%
- viability, T/C [22]: 17.4%
- viability, T/C [23]: 9.89%
- viability, T/C [24]: 0.56%
- viability, T/C [25]: 30.6%
- viability, T/C [26]: 30.9%
- viability, T/C [27]: 20.8%
- viability, T/C [28]: 13.7%
- viability, T/C [29]: 7.23%
- viability, T/C [30]: 0.56%
- viability, T/C [31]: 37.2%
- viability, T/C [32]: 25.6%
- viability, T/C [33]: 24.2%
- viability, T/C [34]: 15.4%
- viability, T/C [35]: 6.06%
- viability, T/C [36]: 0.58%
